# Measurements reported in the supplement of paper PMC13380429.
# ± gives the standard deviation of the averaged measurements.
# Experiments:
# Conditions in all cases: 72 h
# Calu-3 [1] = assay: drug sensitivity score (DSS) for viability; higher = more toxic; extreme values may be limits of the assay
# U2OS [2] = assay: as above
# HepG2 [3] = assay: as above
# Vero E6 [4] = assay: as above
# Caco-2 [5] = assay: as above
# Calu-3 [6] = assay: cell viability relative to DMSO; higher = less toxic
# U2OS [7] = assay: as above
# HepG2 [8] = assay: as above
# Vero E6 [9] = assay: as above
# Caco-2 [10] = assay: as above
# Calu-3 [11] = assay: relative viability EC50 (midpoint between 100% and the lowest measured viability); higher = less toxic
# U2OS [12] = assay: as above
# HepG2 [13] = assay: as above
# Vero E6 [14] = assay: as above
# Caco-2 [15] = assay: as above
Structure (SMILES),drug sensitivity score (Calu-3 [1]),drug sensitivity score (U2OS [2]),drug sensitivity score (HepG2 [3]),drug sensitivity score (Vero E6 [4]),drug sensitivity score (Caco-2 [5]),cell viability (Calu-3 [6]; 1 nM) [%],cell viability (Calu-3 [6]; 10 nM) [%],cell viability (Calu-3 [6]; 100 nM) [%],cell viability (Calu-3 [6]; 1000 nM) [%],cell viability (Calu-3 [6]; 10000 nM) [%],cell viability (U2OS [7]; 1 nM) [%],cell viability (U2OS [7]; 10 nM) [%],cell viability (U2OS [7]; 100 nM) [%],cell viability (U2OS [7]; 1000 nM) [%],cell viability (U2OS [7]; 10000 nM) [%],cell viability (HepG2 [8]; 1 nM) [%],cell viability (HepG2 [8]; 10 nM) [%],cell viability (HepG2 [8]; 100 nM) [%],cell viability (HepG2 [8]; 1000 nM) [%],cell viability (HepG2 [8]; 10000 nM) [%],cell viability (Vero E6 [9]; 1 nM) [%],cell viability (Vero E6 [9]; 10 nM) [%],cell viability (Vero E6 [9]; 100 nM) [%],cell viability (Vero E6 [9]; 1000 nM) [%],cell viability (Vero E6 [9]; 10000 nM) [%],cell viability (Caco-2 [10]; 1 nM) [%],cell viability (Caco-2 [10]; 10 nM) [%],cell viability (Caco-2 [10]; 100 nM) [%],cell viability (Caco-2 [10]; 1000 nM) [%],cell viability (Caco-2 [10]; 10000 nM) [%],relative viability EC50 (Calu-3 [11]) [µM],relative viability EC50 (U2OS [12]) [µM],relative viability EC50 (HepG2 [13]) [µM],relative viability EC50 (Vero E6 [14]) [µM],relative viability EC50 (Caco-2 [15]) [µM]
O=C1c2cccc3c2[C@H](CCC3)CN1[C@@H]1CN2CCC1CC2 [palonosetron],0,0,0,0.5,0,106,99,91.3,100,98.8,98.9,97.5,99.5,100,94.2,94.4,90.2,88.6,96.1,88.9,99.7,103,103,99.3,82.4,105,97.5,90.8,96.8,102,> 10,> 10,> 10,> 10,> 10
CC(C)[C@H](O)C(=O)N[C@@H](C)C(=O)N[C@@H]1C(=O)N(C)CCc2ccccc21 [semagacestat],0,0,0,0,0,95.8,94.8,94.7,99.8,98.1,99.9,100,94,96.8,92.3,99.7,105,114,96.3,92.1,102,101,99.9,100,99.4,96.2,107,98.2,102,92.6,> 10,> 10,> 10,> 10,> 10
Nc1nc(=O)c2c([nH]1)NCC(CNc1ccc(C(=O)N[C@@H](CCC(=O)O)C(=O)O)cc1)N2C=O (stereo not given in full) [leucovorin],0,0,0,0,0,103 ± 15,96.9 ± 7.9,97.45 ± 0.78,99.3 ± 1.7,105 ± 7.5,108,98.9,98.1,95.6,99.2,116,96.5,100,108,97.5,101 ± 3.2,98.2 ± 5.1,104 ± 1.4,97.2 ± 2,101 ± 6.8,92 ± 1.3,94.5 ± 6.2,89.6 ± 2.3,100.3 ± 0.92,100 ± 2,> 10,> 10,> 10,> 10,> 10
